From US11642548B2, “Sterilization method and sterilization apparatus” (Ushio Denki Kabushiki Kaisha, priority 2017, dated 2023)

Assays:
[1] = Test Example 3: odor of amino acid aqueous solutions before and after irradiation of ultraviolet at a peak wavelength of 222 nm (sensory evaluation); format: physicochemical; conditions: for Comparison with smells in Test example 1: odor after 222 nm UV irradiation of the solution compared with odor of UV-irradiated human hand, sensory evaluation by six assessors; for Odor before irradiation: 3 mL aqueous solution of amino acid in petri dish, before ultraviolet irradiation
Description: Looking at amino acids that form the proteins in the epidermis, then changes in the odor before and after irradiation of ultraviolet at a peak wavelength of 222 nm with respect to the following eighteen types of amino acids are examined More specifically, a 3 mL aqueous solution of each type of amino acid was put in a φ40 petri dish, and using the same light source as that of the ultraviolet irradiation apparatus 1, irradiated with ultraviolet with an irradiance of 3.8 mW/cm^2 for an irradiation period of 30 seconds. The petri dish and the light source were spaced apart by 8 cm. The eighteen types of amino acids were: Cystine, glutamic acid, leucine, arginine, serine, threonine, aspartic acid, proline, glycine, valine, alanine, phenylalanine, isoleucine, tyrosine, lysine, histidine, methionine, and tryptophan. These eighteen amino acids are all known as the substances that form proteins contained in the epidermis.
The comparison with the odor in Test Example 1 was made by sensory evaluation performed by the six assessors M1, M2, M3, M4, M5, and M6.

[2] = system: region irradiated with ultraviolet (palm of the right hand); experiment: Test Example 4: application of amino acid aqueous solution to palm irradiated with 222 nm ultraviolet, assessment of change in smell; format: in vivo, human; conditions: 1 mM aqueous solution sprayed and rubbed in on palm irradiated with 222 nm UV, 3.8 mW/cm^2, 30 seconds, smell of burning hair before application, Assessor M1, other five gave the same results
Excerpt: Similarly to the method of Test Example 1, using the ultraviolet irradiation apparatus 1 shown in FIG. 1, the palm of the right hand of each of six assessors M1, M2, M3, M4, M5, and M6 was irradiated with ultraviolet, with a peak wavelength at 222 nm and an irradiance of 3.8 mW/cm^2 for an irradiation period of 30 seconds.
After that, each aqueous solution of the eighteen types of amino acids used in Test Example 3 (cystine, glutamic acid, leucine, arginine, serine, threonine, aspartic acid, proline, glycine, valine, alanine, phenylalanine, isoleucine, tyrosine, lysine, histidine, methionine, and tryptophan) was applied to the region irradiated with ultraviolet (molar concentration: 1 mM). More specifically, each aqueous solution was sprayed and rubbed in with the palm of the hand. This was followed by an assessment of any changes in the smell before and after application of each aqueous solution.

| Structure (SMILES) | Comparison with smells in Test example 1 [1] | Smell after application of amino acid solution [2] | Odor before irradiation [1] | other results |
| --- | --- | --- | --- | --- |
| C[C@H](N)C(=O)O [Alanine, alanine] | Different | – | – | – |
| N=C(N)NCCC[C@H](N)C(=O)O [Arginine, arginine] | Different | Smell disappeared | – | Smell after application of amino acid solution ([2]; listed as arginine): no odor was detected |
| N[C@@H](CC(=O)O)C(=O)O [Aspartic acid, aspartic acid] | Different | Smell disappeared | No smell | Smell after application of amino acid solution ([2]; listed as aspartic acid): no odor was detected |
| N[C@@H](CSSC[C@H](N)C(=O)O)C(=O)O [Cystine] | Different | – | No smell | – |
| N[C@@H](CCC(=O)O)C(=O)O [Glutamic acid, glutamic acid] | Different | Smell disappeared | Slight smell | Smell after application of amino acid solution ([2]; listed as glutamic acid): no odor was detected |
| NCC(=O)O [Glycine, glycine] | Different | Smell disappeared | No smell | Smell after application of amino acid solution ([2]; listed as glycine): no odor was detected |
| N[C@@H](Cc1c[nH]cn1)C(=O)O [Histidine, histidine] | Different | – | No smell | – |
| CC[C@H](C)[C@H](N)C(=O)O [Isoleucine, isoleucine] | substantially the same | Smell disappeared | – | Smell after application of amino acid solution ([2]; listed as isoleucine): no odor was detected |
| CC(C)C[C@H](N)C(=O)O [Leucine, leucine] | substantially the same | Smell disappeared | – | Smell after application of amino acid solution ([2]; listed as leucine): no odor was detected |
| NCCCC[C@H](N)C(=O)O [Lysine, lysine] | Different | – | – | – |
| CSCC[C@H](N)C(=O)O [Methionine, methionine] | substantially the same | Smell disappeared | – | Smell after application of amino acid solution ([2]; listed as methionine): no odor was detected |
| N[C@@H](Cc1ccccc1)C(=O)O [Phenylalanine, phenylalanine] | Different | – | – | – |
| O=C(O)[C@@H]1CCCN1 [Proline, proline] | Different | Smell disappeared | No smell | Smell after application of amino acid solution ([2]; listed as proline): no odor was detected; Odor after irradiation ([1]; 3 mL aqueous solution in petri dish, UV peak 222 nm, 3.8 mW/cm^2, 30 seconds, 8 cm from light source): Smell like lysine |
| N[C@@H](CO)C(=O)O [Serine, serine] | Different | Smell disappeared | No smell | Smell after application of amino acid solution ([2]; listed as serine): no odor was detected |
| C[C@@H](O)[C@H](N)C(=O)O [Threonine, threonine] | Different | – | No smell | – |
| N[C@@H](Cc1ccc(O)cc1)C(=O)O [Tyrosine, tyrosine] | Different | – | No smell | – |
| CC(C)[C@H](N)C(=O)O [Valine, valine] | substantially the same | Smell disappeared | – | Smell after application of amino acid solution ([2]; listed as valine): no odor was detected |
